Experimental findings from PMC7845594, “Novel Immune Modulators Enhance Caenorhabditis elegans Resistance to Multiple Pathogens” (mSphere, 2021) are described below.

Each structure is given as a SMILES string.

Assay [1] deals with C. elegans exposed to P. aeruginosa strain PA14. Description: P. aeruginosa slow-killing assay (agar). Format: in vivo, Caenorhabditis elegans. The note with it: wild-type worms, 50 µM, Fig 8 (DMSO 58.9). The source says: The finding that each of the compounds activated PMK-1/p38 MAPK targets was of interest, as this pathway is associated with enhanced immunity against multiple bacterial pathogens in agar-based C. elegans assays. Therefore, we tested whether these compounds could promote survival in an agar-based, high-colonization pathogenesis model known as slow killing. Loss of PMK-1 activity substantially compromises survival in the slow-killing assay ([16], [47]). Wild-type, young adult worms were exposed to P. aeruginosa strain PA14 on agar plates impregnated with each of the five compounds. […] To see whether this depended upon the PMK-1 pathway, LK32, LK38, and LK56 were retested in worms where RNAi was used to knock down pmk-1/MAPK or atf-7/ATF7 (a key transcription factor whose activity is modulated by PMK-1 [63, 64]) (Fig. 9; see Table S2 in the supplemental material for TD50 and overall statistical significance).
FIG 8 Four LK molecules extend C. elegans life span in the slow-killing assay. […] The data shown are from a representative replicate. Each of the three biological replicates was comprised of three plates per condition, with each plate containing ∼60 worms. Statistical significance was calculated using a log-rank test. Worms that left the surface of the plate were excluded from analysis (see Table S2 in the supplemental material for TD50 and exact P values).
FIG 9 Rescue in slow killing by a subset of LK compounds depends upon the PMK-1/p38 MAPK pathway. Wild-type L4 worms were reared on RNAi targeting pmk-1/p38 MAPK, atf-7/ATF-7, or empty vector and placed onto slow-killing plates containing DMSO or LK32 (A and B), LK38 (C and D), or LK56 (E and F) at 50 µM. Starting at 24 h, worms were scored every 12 h for survival until all worms perished. Each of the three biological replicates was comprised of three plates, each plate contained approximately 50 to 70 worms. Statistical significance was calculated using log-rank test (see Table S2 in the supplemental material for TD50 and exact P values). For vector RNAi, DMSO versus compound, P < 0.001 for LK38, LK56, and LK32.
Supplementary file : FIG S5 NSY-1 and SEK-1, upstream members of the PMK-1/p38 MAPK pathway, are required for LK38-mediated rescue. Young adult wild-type, nsy-1/MAP3K15(ag3), or sek-1/MAP2K6(km-4) mutants were exposed to P. aeruginosa in the slow-killing assay in the presence of DMSO or LK38. Data for each condition at each time point represent the average value for three plates from one representative replicate (of three replicates total). Each plate contained ∼60 worms. P values were calculated using a log-rank test (see Table S2 in the supplemental material for the TD50 and exact P values). For wild-type DMSO versus LK38 P < 0.001. No statistically significant difference was measured between LK38 and DMSO for either mutant. Download FIG S5, PDF file, 0.1 MB.
Slow-killing (SK) plates were made as previously reported ([92]). Compounds were added to molten SK agar before pouring plates. After solidifying, 40 µl of PA14 overnight culture was spread on plates before incubating plates at 37°C for 24 h, followed by 25°C for 24 h. 5-fluoro-2′-deoxyuridine (FUDR) (0.1 mg/ml) was dropped on plates 30 min prior to picking worms, to ensure nematode sterility. Fifty to seventy L4-stage, wild-type worms were picked onto plates and scored every 12 h after the first 24 h, until all worms were dead. Three biological replicates were performed.

Assay [2] deals with reactive oxygen species (ROS). Description: DHE staining (ROS level). Format: in vivo, Caenorhabditis elegans. The note with it: 50 or 100 µM, 10 h, no pathogen. An excerpt:
Previous work from our lab has established that the ESRE network plays an important role in the resistance of C. elegans to pyoverdine, the main virulence determinant in liquid killing, and recent evidence has shown that ESRE activation depends on increased reactive oxygen species (ROS) ([23], [38], [39]). To evaluate ESRE activation, worms carrying an hsp-16.1p::GFP reporter (which contains two ESRE motifs and was previously used as an indicator of ESRE activation [[39][–][41]]), were exposed to 50 or 100 μM LK35, LK38, LK56, juglone (positive control), or DMSO. […] ROS level was assessed based on the fluorescence of dihydroethidium (DHE; a ROS-specific dye) using a COPAS FlowSort for flow vermimetry.
Young adult wild-type (A), hsp-4p::GFP (B), hsp-16.1p::GFP (C), or rpt-3::GFP (D) worms were incubated with LK molecules at 50 or 100 µM, DMSO control, or positive controls. For panel A, the worms were treated with compound for 10 h, and then the worms were stained with 4 µM DHE for 1 h before washing and fluorescence measurement. For panels B to D, the worms were treated with compound for 15 h prior to fluorescence measurement. Mean values from at least three biological replicates are shown. *, P < 0.05; **, P < 0.01; ***, P < 0.001 (compared to the solvent control). P values were calculated using Student’s t test. Error bars represent the standard error of the mean. […]

Assay [3] deals with C. elegans host defense pathway genes. Description: nanoString expression of 115 immune- and stress-responsive genes. Particulars: 100 μM LK molecules, 16 h. As for the experimental part: The ratio of MIC to EC was determined for each of the 69 compounds.
Analysis of the expression of 115 immune- and stress-responsive genes using nanoString technology. Download Table S1, XLSX file, 0.02 MB.
For nanoString-based (nanoString Technologies, Seattle, WA) experiments, 2,000 wild-type, young adult worms were exposed to 100 μM LK molecules or DMSO control in S Basal medium in 6-well plates for 16 h. RNA purification and gene expression analysis were performed according to nanoString guidelines. Two biological replicates were tested for each condition.

`Cc1ccc(Nc2nc(N)c3ccccc3n2)cc1Cl` [RPW-24, reference compound]: in assay [1], the “TD50, slow killing” value was 63.7 h.

With `C=C(C)[C@H]1Cc2c(ccc3c2O[C@@H]2COc4cc(OC)c(OC)cc4[C@@H]2C3=O)O1` [rotenone], the “ROS level (DHE staining)” value in assay [2] was “significant increase in staining”.

With `Cc1cc(C2CCCCC2)n(O)c(=O)c1` [Ciclopirox, reference compound], in assay [3], the “B0024.4 expression, induction” value is 1.09 fold; the “C02B4.2 nhr-17 expression, induction” value is 5.80 fold; the “C06B3.7 expression, induction” value is reported as 3.19 fold; the “C07G3.2 irg-1 expression, induction” value amounted to 1.06 fold. In addition, in assay [3], the “C12C8.1 hsp-70 expression, induction” value was 3.28 fold; the “C15F1.7 sod-1 expression, induction” value is reported as 2.15 fold; the “C29F7.2 expression, induction” value came to 10.38 fold; the “C31A11.5 oac-6 expression, induction” value was 5.76 fold. Also, in assay [3], the “C32D5.12 expression, induction” value turned out to be 1.22 fold; the “C32H11.1 expression, induction” value turned out to be 20.23 fold; the “C32H11.3 expression, induction” value came to 2.02 fold; the “C34G6.4 pgp-2 expression, induction” value was 3.63 fold. In assay [3], the “C37C3.10 expression, induction” value was determined as 12.27 fold; the “C37H5.8 hsp-6 expression, induction” value worked out at 4.01 fold; the “C49G7.5 irg-2 expression, induction” value is reported as 3.65 fold; the “F08F8.5 numr-1 expression, induction” value stood at 8.74 fold. Moreover, in assay [3], the “F08H9.4 expression, induction” value was determined as 4.96 fold; the “F14F9.3 expression, induction” value turned out to be 1.98 fold; the “F22B5.4 expression, induction” value is 2.49 fold; the “F22H10.2 expression, induction” value came out at 2.82 fold. In addition, in assay [3], the “F26A3.4 expression, induction” value amounted to 2.35 fold; the “F35E8.11 cdr-1 expression, induction” value was 56.32 fold; the “F35G2.4 phy-2 expression, induction” value turned out to be 1.70 fold; the “F37B12.2 gcs-1 expression, induction” value amounted to 1.30 fold. In addition, in assay [3], the “F43E2.8 hsp-4 expression, induction” value is 10.74 fold; the “F44E5.5 expression, induction” value was 2.67 fold; the “F49F1.6 expression, induction” value was 2.55 fold; the “F49F1.7 expression, induction” value is on record as 15.81 fold. Further, in assay [3], the “F49H6.13 expression, induction” value was found to be 2.90 fold; the “F54B8.4 expression, induction” value amounted to 6.33 fold; the “F55G11.2 expression, induction” value was 1.86 fold; the “F59A7.1 clec-206 expression, induction” value turned out to be 11.44 fold. Further, in assay [3], the “F59B10.4 expression, induction” value is 1.20 fold; the “H12D21.1 nspa-1 expression, induction” value came out at 3.83 fold; the “H23N18.1 ugt-13 expression, induction” value worked out at 5.56 fold; the “H23N18.3 ugt-8 expression, induction” value was 108.33 fold. In assay [3], the “K05B2.4 expression, induction” value is 8.10 fold; the “K08F4.7 gst-4 expression, induction” value is reported as 2.79 fold; the “K09A9.1 nipi-3 expression, induction” value is reported as 2.12 fold; the “K10D11.2 expression, induction” value stood at 2.25 fold. Besides, in assay [3], the “K10G4.3 expression, induction” value turned out to be 2.60 fold; the “R03D7.6 gst-5 expression, induction” value was 11.91 fold; the “R08H2.1 dhs-23 expression, induction” value is 120.99 fold; the “R10E8.3 expression, induction” value is 3.34 fold. In assay [3], the “T19D12.3 expression, induction” value is on record as 2.80 fold; the “T19H12.1 ugt-9 expression, induction” value amounted to 6.34 fold; the “T21E8.1 pgp-6 expression, induction” value is given as 0.94 fold; the “T22B7.3 expression, induction” value came out at 2.18 fold. For the same molecule, in assay [3], the “T24C4.4 expression, induction” value was 1.62 fold; the “T24E12.5 expression, induction” value is listed as 3.07 fold; the “T27E4.3 hsp-16.48 expression, induction” value stood at 2.96 fold; the “T27E4.8 hsp-16.1 expression, induction” value is 2.80 fold. Moreover, in assay [3], the “T27F6.8 expression, induction” value was 4.80 fold; the “T28C12.4 expression, induction” value worked out at 13.23 fold; the “W02D9.10 expression, induction” value is 2.74 fold; the “Y22D7AL.5 hsp-60 expression, induction” value is 2.19 fold. Besides, in assay [3], the “Y38E10A.15 nspe-7 expression, induction” value was found to be 1.84 fold; the “Y46H3A.2 hsp-16.41 expression, induction” value stood at 2.63 fold; the “Y46H3A.3 hsp-16.2 expression, induction” value was determined as 2.71 fold; the “Y56A3A.33 expression, induction” value turned out to be 3.70 fold. Further, in assay [3], the “Y58A7A.5 expression, induction” value was found to be 1.48 fold; the “ZC376.7 atfs-1 expression, induction” value stood at 3.27 fold; the “ZC443.6 ugt-16 expression, induction” value is on record as 52.72 fold; the “ZK697.6 gst-21 expression, induction” value is 454.34 fold.
